# Assays:
# [1] = tested on: Proto-oncogene tyrosine-protein kinase receptor Ret (Homo sapiens), P07949 [V804M]; assay: Selectivity interaction (KinomeScan (DiscoverX)) EUB0000311b RET; conditions: at 1 µM
# [2] = biological target: Platelet-derived growth factor receptor alpha (Homo sapiens, UniProt P16234); assay: Selectivity interaction (KinomeScan (DiscoverX)) EUB0000595a PDGFRA; conditions: at 10 µM
# [3] = biological target: Platelet-derived growth factor receptor beta (Homo sapiens, UniProt P09619); assay: Selectivity interaction (KinomeScan (DiscoverX)) EUB0000695a PDGFRB; conditions: at 100 nM
# [4] = biological target: T1, Mitogen-activated protein kinase 13 (Homo sapiens) (UniProt O15264); assay: Selectivity interaction (Kinase panel (Z-LYTE Assay)) EUB0001632a MAPK13; conditions: at 10 µM
# T1 sequence (whole entry): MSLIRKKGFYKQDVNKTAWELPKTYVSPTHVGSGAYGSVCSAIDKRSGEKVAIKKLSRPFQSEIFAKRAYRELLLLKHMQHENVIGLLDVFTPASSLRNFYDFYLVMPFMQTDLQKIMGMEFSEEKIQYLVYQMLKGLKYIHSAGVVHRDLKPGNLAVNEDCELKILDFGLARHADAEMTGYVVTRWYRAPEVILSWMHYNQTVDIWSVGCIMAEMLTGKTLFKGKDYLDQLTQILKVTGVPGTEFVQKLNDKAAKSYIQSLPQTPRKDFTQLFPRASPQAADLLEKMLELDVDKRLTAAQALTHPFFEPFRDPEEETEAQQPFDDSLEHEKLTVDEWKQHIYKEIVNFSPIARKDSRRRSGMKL
# [5] = biological target: T2, Dual specificity mitogen-activated protein kinase kinase 4 (Homo sapiens) (UniProt P45985); assay: Selectivity interaction (ActivX KiNativ screen (ex vivo kinase selectivity in human PBMCs)) EUB0001619a MAP2K4; assay type: cell-based; conditions: PBMC, at 1 µM
# T2 sequence (whole entry): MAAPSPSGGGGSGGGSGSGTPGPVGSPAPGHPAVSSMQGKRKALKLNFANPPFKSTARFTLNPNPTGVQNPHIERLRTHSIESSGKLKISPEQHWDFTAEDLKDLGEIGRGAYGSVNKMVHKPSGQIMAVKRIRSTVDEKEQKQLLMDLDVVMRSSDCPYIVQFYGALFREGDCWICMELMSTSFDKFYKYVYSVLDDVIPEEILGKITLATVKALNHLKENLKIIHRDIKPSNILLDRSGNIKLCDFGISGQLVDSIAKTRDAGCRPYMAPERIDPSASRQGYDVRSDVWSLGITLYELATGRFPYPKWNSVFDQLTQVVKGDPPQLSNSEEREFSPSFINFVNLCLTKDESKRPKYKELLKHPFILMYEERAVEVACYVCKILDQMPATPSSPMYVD
# [6] = tested on: Fibroblast growth factor receptor 3 (Homo sapiens), P22607 [G697C]; assay: (§1) Selectivity interaction (KinomeScan (DiscoverX)) EUB0000607a FGFR3; conditions: at 10 µM
# [7] = biological target: Fibroblast growth factor receptor 3 (Homo sapiens, UniProt P22607); assay: as §1; conditions: at 10 µM
# [8] = biological target: T3, Dual specificity mitogen-activated protein kinase kinase 1 (Homo sapiens, UniProt Q02750); assay: Selectivity interaction (KinomeScan (DiscoverX)) EUB0000607a MAP2K1; conditions: at 10 µM
# [9] = biological target: Ribosomal protein S6 kinase beta-1 (Homo sapiens, UniProt P23443); assay: Selectivity interaction (SelectScreen profiling (Invitrogen)) EUB0000607a RPS6KB1; conditions: at 2 µM
# [10] = biological target: Tyrosine-protein kinase Lck (Homo sapiens, UniProt P06239); assay: Selectivity interaction (KinomeScan (DiscoverX)) EUB0000655a LCK; conditions: at 10 µM
# [11] = biological target: T3, Dual specificity mitogen-activated protein kinase kinase 1; conditions: at 10 µM
# [12] = biological target: T4, Aurora kinase A (Homo sapiens) (UniProt O14965); assay: Selectivity interaction (Ambit KINOMEscan and KiNATiv profiling in Jurkat cells) EUB0000090b STK6; assay type: cell-based; conditions: at 1 µM
# T4 sequence (whole entry): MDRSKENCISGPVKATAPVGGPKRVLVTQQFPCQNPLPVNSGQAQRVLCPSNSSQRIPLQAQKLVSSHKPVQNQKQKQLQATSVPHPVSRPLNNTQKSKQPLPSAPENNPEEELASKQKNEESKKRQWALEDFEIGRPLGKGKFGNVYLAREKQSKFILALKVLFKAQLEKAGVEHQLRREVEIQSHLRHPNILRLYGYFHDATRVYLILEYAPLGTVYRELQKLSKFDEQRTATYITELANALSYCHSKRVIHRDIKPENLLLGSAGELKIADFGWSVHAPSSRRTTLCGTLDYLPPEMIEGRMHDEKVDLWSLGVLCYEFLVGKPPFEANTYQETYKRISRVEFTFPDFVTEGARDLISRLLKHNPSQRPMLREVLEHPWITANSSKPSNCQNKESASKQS
# [13] = biological target: T5, Ephrin type-A receptor 1 (Homo sapiens) (UniProt P21709); assay: Selectivity interaction (Ambit KINOMEscan and KiNATiv profiling in Jurkat cells) EUB0000090b EPHA1; assay type: cell-based; conditions: at 1 µM
# T5 sequence (whole entry): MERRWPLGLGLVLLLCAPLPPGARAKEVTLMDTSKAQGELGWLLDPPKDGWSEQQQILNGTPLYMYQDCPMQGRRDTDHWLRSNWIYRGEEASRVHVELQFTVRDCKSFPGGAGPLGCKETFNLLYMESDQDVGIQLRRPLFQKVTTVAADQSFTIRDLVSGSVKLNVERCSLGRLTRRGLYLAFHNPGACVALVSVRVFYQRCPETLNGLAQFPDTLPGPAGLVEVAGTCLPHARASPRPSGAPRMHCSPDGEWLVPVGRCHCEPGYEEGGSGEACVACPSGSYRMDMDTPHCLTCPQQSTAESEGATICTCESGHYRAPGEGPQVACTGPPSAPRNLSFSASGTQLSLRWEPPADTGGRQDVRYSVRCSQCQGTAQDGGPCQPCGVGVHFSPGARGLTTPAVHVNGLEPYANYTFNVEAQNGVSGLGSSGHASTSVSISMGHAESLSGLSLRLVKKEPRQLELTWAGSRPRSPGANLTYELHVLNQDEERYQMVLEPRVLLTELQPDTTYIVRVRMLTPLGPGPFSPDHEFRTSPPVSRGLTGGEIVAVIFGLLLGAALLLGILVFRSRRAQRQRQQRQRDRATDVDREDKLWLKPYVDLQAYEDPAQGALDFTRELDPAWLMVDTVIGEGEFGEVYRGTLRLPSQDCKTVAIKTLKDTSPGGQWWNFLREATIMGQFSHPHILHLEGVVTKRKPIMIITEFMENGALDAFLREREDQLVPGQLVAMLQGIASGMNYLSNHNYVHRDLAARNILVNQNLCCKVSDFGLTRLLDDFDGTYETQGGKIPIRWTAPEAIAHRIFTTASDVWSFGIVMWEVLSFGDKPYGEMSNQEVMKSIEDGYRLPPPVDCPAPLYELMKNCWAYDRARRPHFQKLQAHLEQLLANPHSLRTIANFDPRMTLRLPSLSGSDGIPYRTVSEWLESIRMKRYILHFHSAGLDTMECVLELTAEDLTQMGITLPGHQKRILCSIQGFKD
# T3 sequence (Q02750 whole entry): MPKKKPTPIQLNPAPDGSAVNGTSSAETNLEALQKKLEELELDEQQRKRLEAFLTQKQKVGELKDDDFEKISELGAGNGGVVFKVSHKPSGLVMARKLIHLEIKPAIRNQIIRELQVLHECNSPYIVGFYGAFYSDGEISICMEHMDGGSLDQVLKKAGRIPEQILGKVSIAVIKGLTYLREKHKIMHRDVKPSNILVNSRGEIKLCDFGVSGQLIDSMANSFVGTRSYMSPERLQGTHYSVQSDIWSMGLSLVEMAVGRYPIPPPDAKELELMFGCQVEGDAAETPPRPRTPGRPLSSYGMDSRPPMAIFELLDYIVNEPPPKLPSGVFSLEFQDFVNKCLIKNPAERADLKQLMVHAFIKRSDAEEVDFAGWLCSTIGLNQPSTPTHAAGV
# Sequence of Platelet-derived growth factor receptor alpha (P16234 whole entry): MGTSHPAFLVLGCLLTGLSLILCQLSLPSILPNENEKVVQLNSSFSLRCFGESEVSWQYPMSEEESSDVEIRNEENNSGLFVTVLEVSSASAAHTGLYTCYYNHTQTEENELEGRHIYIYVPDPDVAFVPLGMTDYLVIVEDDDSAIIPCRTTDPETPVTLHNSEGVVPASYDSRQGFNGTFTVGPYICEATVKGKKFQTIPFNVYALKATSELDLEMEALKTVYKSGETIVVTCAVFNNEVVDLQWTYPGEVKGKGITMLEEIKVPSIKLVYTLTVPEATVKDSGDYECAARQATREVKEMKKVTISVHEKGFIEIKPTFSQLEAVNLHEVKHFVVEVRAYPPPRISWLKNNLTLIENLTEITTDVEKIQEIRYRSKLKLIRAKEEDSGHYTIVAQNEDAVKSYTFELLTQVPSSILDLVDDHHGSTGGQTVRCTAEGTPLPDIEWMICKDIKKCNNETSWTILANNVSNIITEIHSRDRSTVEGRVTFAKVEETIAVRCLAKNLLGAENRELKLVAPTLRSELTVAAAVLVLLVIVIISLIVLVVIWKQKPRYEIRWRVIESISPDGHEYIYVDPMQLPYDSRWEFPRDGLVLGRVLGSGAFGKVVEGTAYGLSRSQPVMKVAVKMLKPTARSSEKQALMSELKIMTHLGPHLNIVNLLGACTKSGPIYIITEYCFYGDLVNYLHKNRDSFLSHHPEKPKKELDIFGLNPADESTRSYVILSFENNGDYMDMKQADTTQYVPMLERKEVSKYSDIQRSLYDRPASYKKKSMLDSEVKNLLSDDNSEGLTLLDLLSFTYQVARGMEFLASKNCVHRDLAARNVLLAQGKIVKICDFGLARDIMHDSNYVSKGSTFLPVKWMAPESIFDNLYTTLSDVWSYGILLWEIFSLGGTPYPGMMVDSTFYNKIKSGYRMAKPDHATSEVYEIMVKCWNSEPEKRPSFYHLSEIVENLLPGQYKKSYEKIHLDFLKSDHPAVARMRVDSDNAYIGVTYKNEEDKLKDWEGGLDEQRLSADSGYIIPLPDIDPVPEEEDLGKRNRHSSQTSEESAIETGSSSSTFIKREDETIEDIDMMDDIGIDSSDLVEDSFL
# Sequence of Tyrosine-protein kinase Lck (P06239 2-509 limits assumed): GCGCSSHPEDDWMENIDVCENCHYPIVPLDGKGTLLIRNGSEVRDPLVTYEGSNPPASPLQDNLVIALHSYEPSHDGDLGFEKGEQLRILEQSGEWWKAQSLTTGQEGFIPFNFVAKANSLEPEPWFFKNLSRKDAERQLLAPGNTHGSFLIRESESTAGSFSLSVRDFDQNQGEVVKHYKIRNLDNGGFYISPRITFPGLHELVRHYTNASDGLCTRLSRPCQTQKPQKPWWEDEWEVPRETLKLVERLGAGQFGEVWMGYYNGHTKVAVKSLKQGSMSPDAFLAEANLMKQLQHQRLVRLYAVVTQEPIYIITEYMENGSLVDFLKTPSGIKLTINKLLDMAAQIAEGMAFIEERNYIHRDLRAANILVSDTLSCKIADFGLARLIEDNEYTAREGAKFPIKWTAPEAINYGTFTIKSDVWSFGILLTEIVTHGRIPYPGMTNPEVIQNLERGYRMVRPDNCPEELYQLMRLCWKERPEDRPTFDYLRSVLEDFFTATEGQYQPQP
# Sequence of Fibroblast growth factor receptor 3 (Homo sapiens), P22607 [G697C] (P22607 whole entry G697C): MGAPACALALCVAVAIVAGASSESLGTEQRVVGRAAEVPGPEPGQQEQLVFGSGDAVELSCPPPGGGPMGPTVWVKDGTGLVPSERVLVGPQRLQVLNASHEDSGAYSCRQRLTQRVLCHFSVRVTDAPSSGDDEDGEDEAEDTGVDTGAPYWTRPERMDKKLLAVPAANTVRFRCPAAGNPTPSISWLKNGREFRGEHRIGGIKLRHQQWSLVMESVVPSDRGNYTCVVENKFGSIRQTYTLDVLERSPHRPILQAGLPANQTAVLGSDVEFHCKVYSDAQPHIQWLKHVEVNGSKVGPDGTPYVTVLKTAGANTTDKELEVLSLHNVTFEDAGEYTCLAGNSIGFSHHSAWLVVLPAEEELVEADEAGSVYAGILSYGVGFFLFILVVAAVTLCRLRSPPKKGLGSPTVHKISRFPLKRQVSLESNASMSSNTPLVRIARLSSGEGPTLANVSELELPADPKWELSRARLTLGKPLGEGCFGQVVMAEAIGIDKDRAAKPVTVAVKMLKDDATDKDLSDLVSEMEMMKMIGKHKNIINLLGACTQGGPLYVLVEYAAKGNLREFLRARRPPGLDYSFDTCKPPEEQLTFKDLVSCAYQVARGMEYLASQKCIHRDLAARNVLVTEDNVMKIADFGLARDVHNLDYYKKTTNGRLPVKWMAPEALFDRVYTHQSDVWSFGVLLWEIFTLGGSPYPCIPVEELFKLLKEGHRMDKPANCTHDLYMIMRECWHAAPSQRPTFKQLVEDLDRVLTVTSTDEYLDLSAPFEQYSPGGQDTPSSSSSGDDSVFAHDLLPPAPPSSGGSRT
# Sequence of Fibroblast growth factor receptor 3 (P22607 23-806 limits assumed): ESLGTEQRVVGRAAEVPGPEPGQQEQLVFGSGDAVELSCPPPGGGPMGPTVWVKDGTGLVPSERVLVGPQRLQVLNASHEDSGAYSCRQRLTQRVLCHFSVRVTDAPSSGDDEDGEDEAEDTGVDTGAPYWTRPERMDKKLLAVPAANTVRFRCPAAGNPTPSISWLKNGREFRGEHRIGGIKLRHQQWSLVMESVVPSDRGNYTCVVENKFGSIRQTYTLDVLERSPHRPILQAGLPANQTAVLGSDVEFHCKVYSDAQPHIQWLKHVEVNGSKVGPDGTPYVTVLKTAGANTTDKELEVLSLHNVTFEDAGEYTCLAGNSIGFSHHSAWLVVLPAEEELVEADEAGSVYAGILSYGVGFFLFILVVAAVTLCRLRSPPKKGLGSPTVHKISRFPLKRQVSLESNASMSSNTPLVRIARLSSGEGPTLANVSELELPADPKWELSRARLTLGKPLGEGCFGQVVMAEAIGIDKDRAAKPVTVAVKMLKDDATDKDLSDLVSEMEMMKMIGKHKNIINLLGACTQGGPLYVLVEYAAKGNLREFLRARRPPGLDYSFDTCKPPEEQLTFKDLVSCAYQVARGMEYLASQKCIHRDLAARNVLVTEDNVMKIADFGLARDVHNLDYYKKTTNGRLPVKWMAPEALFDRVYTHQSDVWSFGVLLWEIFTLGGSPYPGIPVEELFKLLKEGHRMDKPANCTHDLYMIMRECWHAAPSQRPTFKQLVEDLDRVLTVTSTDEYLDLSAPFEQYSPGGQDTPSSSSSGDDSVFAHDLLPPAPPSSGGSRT
# Sequence of Proto-oncogene tyrosine-protein kinase receptor Ret (Homo sapiens), P07949 [V804M] (P07949 whole entry V804M): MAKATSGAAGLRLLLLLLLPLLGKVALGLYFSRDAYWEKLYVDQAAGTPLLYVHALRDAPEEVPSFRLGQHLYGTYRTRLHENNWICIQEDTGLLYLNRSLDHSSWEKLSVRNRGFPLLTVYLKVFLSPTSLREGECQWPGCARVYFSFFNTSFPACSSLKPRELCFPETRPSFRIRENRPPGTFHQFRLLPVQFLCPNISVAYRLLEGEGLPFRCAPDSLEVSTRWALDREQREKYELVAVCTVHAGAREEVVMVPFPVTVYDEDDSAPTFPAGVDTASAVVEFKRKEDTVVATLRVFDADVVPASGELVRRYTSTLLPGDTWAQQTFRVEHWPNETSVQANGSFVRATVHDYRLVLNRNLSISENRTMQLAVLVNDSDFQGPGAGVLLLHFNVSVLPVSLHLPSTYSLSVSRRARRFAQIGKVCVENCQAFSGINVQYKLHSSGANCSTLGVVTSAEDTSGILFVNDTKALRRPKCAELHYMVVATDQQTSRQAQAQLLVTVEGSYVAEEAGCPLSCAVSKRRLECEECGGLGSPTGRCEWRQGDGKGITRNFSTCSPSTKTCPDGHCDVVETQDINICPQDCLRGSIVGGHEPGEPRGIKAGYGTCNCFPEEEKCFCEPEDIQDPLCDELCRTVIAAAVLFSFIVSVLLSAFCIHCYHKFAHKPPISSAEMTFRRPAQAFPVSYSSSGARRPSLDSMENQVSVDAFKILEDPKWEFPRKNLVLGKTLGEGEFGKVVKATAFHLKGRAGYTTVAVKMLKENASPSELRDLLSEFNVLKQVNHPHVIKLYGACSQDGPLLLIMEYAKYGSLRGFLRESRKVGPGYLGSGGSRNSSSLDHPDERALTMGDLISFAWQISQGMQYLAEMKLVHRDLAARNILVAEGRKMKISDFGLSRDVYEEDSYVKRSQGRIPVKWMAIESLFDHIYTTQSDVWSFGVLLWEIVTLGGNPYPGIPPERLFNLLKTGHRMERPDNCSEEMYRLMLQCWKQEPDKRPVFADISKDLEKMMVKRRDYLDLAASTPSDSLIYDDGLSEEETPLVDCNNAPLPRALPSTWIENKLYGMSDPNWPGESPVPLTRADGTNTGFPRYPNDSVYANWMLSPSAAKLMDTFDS
smiles,measurement,setting,value
CCc1ccccc1C(=O)Nc1n[nH]c2c(C)c(F)c(C3C(C#N)=C(C)N(C)C(C)=C3C#N)cc12 [BAY-3827],% of control,[1],11%
COCC(=O)NC/C=C/c1ccc2ncnc(Nc3ccc(Oc4ccc(C)nc4)c(C)c3)c2c1 [CP-724714],% of control,[2],56%
Cc1cc(F)c(C(=O)Nc2cccc(-c3nncn3C(C)C)n2)cc1-n1cnc(C2CC2)c1,% of control,[3],90%
Cn1cc(-n2cnc3c(NCc4nc5cc(Cl)c(Cl)cc5[nH]4)nc(N4CCOCC4)nc32)cn1,% of control,[4],3.12%
N#Cc1cccc(-c2c[nH]c3ncnc(N4CCOCC4)c23)c1,% of inhibition,[5],-17%
CNC(=O)Nc1ccc(-c2nc(N3CC4CCC(C3)O4)c3cnn(C4CCC5(CC4)OCCO5)c3n2)cc1,% of control,[6],74%
same,% of control,[7],83%
same,% of control,[8],100%
same,% of inhibition,[9],2%
CN(C)CCOc1ccc(-c2nc(-c3ccncc3)c(-c3ccc4c(c3)CC/C4=N\O)[nH]2)cc1,% of control,[10],29%
CCN(CC)CCCCNc1ncc2cc(-c3cc(OC)cc(OC)c3)c(NC(=O)NC(C)(C)C)nc2n1,% of control,[11],100%
CN(C)C/C=C/C(=O)Nc1ccc(C(=O)N2CCCC(Nc3ncc(Cl)c(-c4c[nH]c5ccccc45)n3)C2)cc1 (stereo not drawn),% of control,[12],96%
same,% of control,[13],73%
